# US9702866B2, “Glatiramer acetate human monocytic cell line-based potency assay” (SYNTHON B.V., priority 2013, dated 2017)
# Key:
# [1] = system: THP-1 cells; test: lactate dehydrogenase (LDH) release as marker for cell death in IFNγ-activated THP-1 cells; assay type: cell-based, human; details: 100 μg/ml glatiramer acetate, IFNγ (10 ng/ml)-activated THP-1 cells
# [2] = system: Human leukemic monocyte lymphoma cells (U937); test: responsiveness of U937 cells to GA; assay type: cell-based
# [3] = system: THP-1 cells; test: sIL-1Ra expression of IFNγ-stimulated THP-1 cells after exposure to GA (ELISA); assay type: cell-based, human; details: THP-1 cells in the presence of IFNγ
# Procedure: • Add 10 ml RPMI-1640 Medium (Lonza/Cambrex, #12-70F) with 10% FBS (fetal bovine serum) to a 15 ml sterile tube. • Remove one vial of THP-1 cells (ATCC, #TIB-202) from the liquid nitrogen storage tank and thaw the cells in the vial by gentle agitation in a 37° C.±1° C. water bath until almost totally thawed. • Sterilize the outside of the vial using a wipe, soaked in 70% (v/v) ethanol. • Using good aseptic technique, open the vial and transfer the contents of the vial into a Falcon tube, adding 10 ml of the pre-warmed RPMI-1640 plus 10% FBS. • Spin down at approximately 200 g for 5 minutes. Afterwards, discard the supernatant. • Resuspend the pellet into 10 ml pre-warmed RPMI-1640 plus 10% FBS, and transfer the cell suspension to a T-25 culture flask. • Place the T-25 cell culture flask into a humidified incubator at 37±1° C. and 5.0±1% CO2. Sub-Culturing (Passaging) of THP-1 Cells • THP-1 cells are sub-cultured every 3 or 4 days. • Collect cells and spin down at 200 g for 5 min. […] Supernatant Harvest and ELISA • After 72 hours of incubation centrifuge the 96-well plate at 200 g for 5 minutes. • Transfer 125 μl of the cell-free supernatant/well to a storage plate. • sIL-1Ra is determined in the cell supernatants using the sIL-1Ra ELISA kit from Quantikine, R&D, Minneapolis, Minn. […]
# [4] = MS patients, in vivo; cited from earlier work
# [5] = system: human monocytes; details: human monocytes in vitro; cited from earlier work
# [6] = system: THP-1 cells; test: cell viability by ATP levels (CellTiter-Glo) in IFNγ-activated THP-1 cells; assay type: cell-based, human; details: IFNγ (25 ng/ml)-activated THP-1 cells, after 120 h of culture
# Procedure: In another embodiment of the present invention, the viability of human monocytic cell line cells, particularly THP-1 cells, is measured. Suitable methods to determine viability of human monocytic cell line cells are well-known to the person skilled in the art. One suitable method is measuring ATP levels (for instance the CellTiter-Glo® Luminescent Cell Viability Assay is a homogeneous method to determine the number of viable cells in culture based on quantitation of the ATP present, which signals the presence of metabolically active cells) after a suitable time period, typically after 96-144 hours, particularly after 120 hours. When determining the number of viable cells, similar or slightly higher concentrations of IFNγ can be used as described above.
# Upon confirmation of parallelism the reduced model will be fitted and the EC50 for the Reference and test batch will be estimated by EC50RS and EC50TA respectively. The relative potency of the test batch will be estimated as: Relative potency=EC50RS/EC50TA*100% Cell Viability • The number of metabolically active cells in the cultures is determined by the CellTiter-Glo® Luminescent Cell Viability Assay (Promega, G7571). […] It is based on quantitation of adenosine tri-phosphate (ATP), which signals the presence of metabolically active cells.
substance,measurement,setting,value
Glatiramer acetate [GA],cell death (LDH release),[1],induces cell death
same,responsiveness of cells to GA,[2],not responsive
same,sIL-1Ra secretion,[3],induces sIL-1Ra secretion
same,sIL-1Ra circulating levels,[4],enhances sIL-1Ra circulating levels
same,production of sIL-1Ra in monocytes,[5],induces the production
same,cell viability (ATP levels),[6],cell viability inhibition
